In patent US20260297081A1, “COMPOUNDS AND METHODS OF TREATING CANCERS” (Cullgen Inc., priority 2023, published 2026):

How the values were obtained:
Assay type in all cases: cell-based
Calu-1 cells = test: Anti-proliferation (viability) of NSCLC Calu-1 cells, 3 days (Table 7, FIG. 2B); details: Homo sapiens, 72 h; Calu-1 cells, 3 days, 10-point serial dilution; read-out: GI IC50 in Calu-1
Outline: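 Viability after a 10-point dilution series of heterobifunctional compounds, with exposure of 6 days for ER+ breast T47D cells and 3 days for NSCLC Calu-1 cells.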

MCF7 cells = test: Anti-proliferation (viability) of MCF7 cells (Table 7, FIG. 2B); details: Homo sapiens, MCF7, MCF7 cells, 3-6 days, 10-point serial dilution; read-out: GI IC50 in MCF-7
CDK4 = CDK4 (Homo sapiens, UniProt P11802+Q16531); test: CDK4 percentage degradation in Calu-1 cells (Table 6); design: Cells that express cyclin D1-3 and CDK4/6 proteins were treated with heterobifunctional compounds; endogenous in cells; host or cells: Calu-1; details: 16 hours; for inhibition at 0.04 µM: 40 nM; for inhibition at 0.2 µM: 200 nM
Sequence of CDK4 (P11802 2-303 limits assumed): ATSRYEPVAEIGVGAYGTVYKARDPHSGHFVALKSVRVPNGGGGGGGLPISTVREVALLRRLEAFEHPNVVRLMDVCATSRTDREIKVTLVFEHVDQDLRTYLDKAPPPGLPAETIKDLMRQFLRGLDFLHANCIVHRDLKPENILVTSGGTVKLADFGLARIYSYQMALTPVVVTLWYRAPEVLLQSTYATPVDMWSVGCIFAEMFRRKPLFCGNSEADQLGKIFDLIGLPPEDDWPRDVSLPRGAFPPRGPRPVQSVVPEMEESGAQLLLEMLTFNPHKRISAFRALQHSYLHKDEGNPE
Sequence of CDK4 (P24385 whole entry partner): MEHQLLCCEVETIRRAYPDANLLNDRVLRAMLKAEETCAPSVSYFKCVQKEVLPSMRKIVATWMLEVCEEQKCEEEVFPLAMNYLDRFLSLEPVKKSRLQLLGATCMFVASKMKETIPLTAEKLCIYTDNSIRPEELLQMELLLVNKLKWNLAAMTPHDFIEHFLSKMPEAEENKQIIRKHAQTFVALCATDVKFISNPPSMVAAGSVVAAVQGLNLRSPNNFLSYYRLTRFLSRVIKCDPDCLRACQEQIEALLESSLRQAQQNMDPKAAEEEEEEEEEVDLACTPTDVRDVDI
Sequence of CDK4 (Q16531 2-1140 limits assumed): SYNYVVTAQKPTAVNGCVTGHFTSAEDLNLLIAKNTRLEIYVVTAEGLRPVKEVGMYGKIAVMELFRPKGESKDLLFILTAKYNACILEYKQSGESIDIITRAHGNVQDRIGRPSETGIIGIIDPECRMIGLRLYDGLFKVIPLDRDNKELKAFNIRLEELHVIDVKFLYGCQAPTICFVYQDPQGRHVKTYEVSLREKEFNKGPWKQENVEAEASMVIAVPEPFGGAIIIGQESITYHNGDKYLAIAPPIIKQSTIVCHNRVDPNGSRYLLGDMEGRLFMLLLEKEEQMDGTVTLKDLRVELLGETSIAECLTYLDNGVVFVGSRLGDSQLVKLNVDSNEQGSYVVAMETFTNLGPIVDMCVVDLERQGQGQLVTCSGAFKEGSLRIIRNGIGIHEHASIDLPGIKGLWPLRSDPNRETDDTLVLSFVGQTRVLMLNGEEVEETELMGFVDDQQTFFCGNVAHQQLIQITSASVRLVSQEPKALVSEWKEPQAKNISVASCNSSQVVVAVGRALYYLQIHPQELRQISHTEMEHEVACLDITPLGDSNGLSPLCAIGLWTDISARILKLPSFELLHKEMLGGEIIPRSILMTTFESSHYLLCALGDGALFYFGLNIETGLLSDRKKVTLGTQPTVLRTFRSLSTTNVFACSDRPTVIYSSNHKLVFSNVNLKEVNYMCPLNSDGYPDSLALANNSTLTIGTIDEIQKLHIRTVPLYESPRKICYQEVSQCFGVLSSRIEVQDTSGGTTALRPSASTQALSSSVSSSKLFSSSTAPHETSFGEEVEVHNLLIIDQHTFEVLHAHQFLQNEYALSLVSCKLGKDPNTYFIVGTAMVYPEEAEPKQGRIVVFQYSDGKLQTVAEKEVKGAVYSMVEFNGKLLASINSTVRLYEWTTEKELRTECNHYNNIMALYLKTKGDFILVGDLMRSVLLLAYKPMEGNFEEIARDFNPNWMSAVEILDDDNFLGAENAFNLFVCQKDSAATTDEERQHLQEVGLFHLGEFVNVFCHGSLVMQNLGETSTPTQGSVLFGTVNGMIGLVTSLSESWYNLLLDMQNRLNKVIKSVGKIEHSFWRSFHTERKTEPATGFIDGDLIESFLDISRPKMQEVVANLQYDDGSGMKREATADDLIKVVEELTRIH
Outline: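 Percentage degradation of Cyclin D1 and CDK4 derived from densitometry of ECL Western blots on lysates of Calu-1 cells. Treatment was 16 h with compound at either 40 nM or 200 nM.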

| Compound | IC50 (Calu-1 cells) | IC50 (MCF7 cells) | inhibition at 0.04 µM (CDK4) | inhibition at 0.2 µM (CDK4) |
| --- | --- | --- | --- | --- |
| CNc1ccc(C(=O)Nc2ccc(N(C)C)nn2)c(NC2CCC3(C2)CN(C(=O)CCN2CCN(c4ccc(Nc5ncc6c(C)c(C(C)=O)c(=O)n(C7CCCC7)c6n5)nc4)CC2)C3)n1 (centres unmarked) [CPD-158, 2-((2-(3-(4-(6-((6-acetyl-8-cyclopentyl-5-methyl-7-oxo-7,8-dihydropyrido[2,3-d]pyrimidin-2-yl)amino)pyridin-3-yl)piperazin-1-yl)propanoyl)-2-azaspiro[3.4]octan-6-yl)amino)-N-(6-(dimethylamino)pyridazin-3-yl)-6-(methylamino)nicotinamide] | ≤ 10 nM | < 50 nM | 50 to 80% | > 80% |
| CNc1ccc(C(=O)Nc2ccc(N(C)C)nn2)c(NCC2CCN(C(=O)CCN3CCN(c4ccc(Nc5ncc6c(C)c(C(C)=O)c(=O)n(C7CCCC7)c6n5)nc4)CC3)CC2)n1 [CPD-146, 2-(((1-(3-(4-(6-((6-acetyl-8-cyclopentyl-5-methyl-7-oxo-7,8-dihydropyrido[2,3-d]pyrimidin-2-yl)amino)pyridin-3-yl)piperazin-1-yl)propanoyl)piperidin-4-yl)methyl)amino)-N-(6-(dimethylamino)pyridazin-3-yl)-6-(methylamino)nicotinamide] | ≤ 10 nM | < 50 nM | 50 to 80% | > 80% |
| CNc1ccc(C(=O)Nc2ccc(N(C)C)nn2)c(NC2CC3(C2)CN(C(=O)C(F)(F)CN2CCN(c4ccc(Nc5ncc6c(C)c(C(C)=O)c(=O)n(C7CCCC7)c6n5)nc4)CC2)C3)n1 [CPD-208, 2-((2-(3-(4-(6-((6-acetyl-8-cyclopentyl-5-methyl-7-oxo-7,8-dihydropyrido[2,3-d]pyrimidin-2-yl)amino)pyridin-3-yl)piperazin-1-yl)-2,2-difluoropropanoyl)-2-azaspiro[3.3]heptan-6-yl)amino)-N-(6-(dimethylamino)pyridazin-3-yl)-6-(methylamino)nicotinamide] | ≤ 10 nM | < 50 nM | 50 to 80% | > 80% |
| CNc1ccc(C(=O)Nc2ccc(N(C)C)nn2)c(NC2CC3(C2)CC(OC(C)C(=O)N2CCN(c4ccc(Nc5ncc6c(C)c(C(C)=O)c(=O)n(C7CCCC7)c6n5)nc4)CC2)C3)n1 (centres unmarked) [CPD-189, 2-((6-((1-(4-(6-((6-acetyl-8-cyclopentyl-5-methyl-7-oxo-7,8-dihydropyrido[2,3-d]pyrimidin-2-yl)amino)pyridin-3-yl)piperazin-1-yl)-1-oxopropan-2-yl)oxy)spiro[3.3]heptan-2-yl)amino)-N-(6-(dimethylamino)pyridazin-3-yl)-6-(methylamino)nicotinamide] | 10 to 50 nM | > 100 nM | 50 to 80% | 50 to 80% |
| CNc1ccc(C(=O)Nc2cccc(C3CC3)n2)c(NC2CC3(C2)CN(C(=O)C2(CN4CCN(c5ccc(Nc6ncc7c(C)c(C(C)=O)c(=O)n(C8CCCC8)c7n6)nc5)CC4)CC2)C3)n1 [CPD-173, 2-((2-(1-((4-(6-((6-acetyl-8-cyclopentyl-5-methyl-7-oxo-7,8-dihydropyrido[2,3-d]pyrimidin-2-yl)amino)pyridin-3-yl)piperazin-1-yl)methyl)cyclopropane-1-carbonyl)-2-azaspiro[3.3]heptan-6-yl)amino)-N-(6-cyclopropylpyridin-2-yl)-6-(methylamino)nicotinamide] | ≤ 10 nM | < 50 nM | > 80% | > 80% |
| CNc1ccc(C(=O)Nc2ccc(N(C)C)nn2)c(NC2CCN(C(=O)CN3CCN(c4ccc(Nc5ncc6c(C)c(C(C)=O)c(=O)n(C7CCCC7)c6n5)nc4)CC3)CC2)n1 [CPD-200, 2-((1-(2-(4-(6-((6-acetyl-8-cyclopentyl-5-methyl-7-oxo-7,8-dihydropyrido[2,3-d]pyrimidin-2-yl)amino)pyridin-3-yl)piperazin-1-yl)acetyl)piperidin-4-yl)amino)-N-(6-(dimethylamino)pyridazin-3-yl)-6-(methylamino)nicotinamide] | ≤ 10 nM | 50 to 100 nM | 50 to 80% | 50 to 80% |
| CNc1ccc(C(=O)Nc2ccc(N(C)C)nn2)c(NC2CC(OCCC(=O)N3CCN(c4ccc(Nc5ncc6c(C)c(C(C)=O)c(=O)n(C7CCCC7)c6n5)nc4)CC3)C2)n1 (centres unmarked) [CPD-178, 2-((3-(3-(4-(6-((6-acetyl-8-cyclopentyl-5-methyl-7-oxo-7,8-dihydropyrido[2,3-d]pyrimidin-2-yl)amino)pyridin-3-yl)piperazin-1-yl)-3-oxopropoxy)cyclobutyl)amino)-N-(6-(dimethylamino)pyridazin-3-yl)-6-(methylamino)nicotinamide] | ≤ 10 nM | 50 to 100 nM | 50 to 80% | 50 to 80% |
| CNc1ccc(C(=O)Nc2ccc(N(C)C)nn2)c(NC2CN(C(=O)CCN3CCN(c4ccc(Nc5ncc6c(C)c(C(C)=O)c(=O)n(C7CCCC7)c6n5)nc4)CC3)C2)n1 [CPD-186, 2-((1-(3-(4-(6-((6-acetyl-8-cyclopentyl-5-methyl-7-oxo-7,8-dihydropyrido[2,3-d]pyrimidin-2-yl)amino)pyridin-3-yl)piperazin-1-yl)propanoyl)azetidin-3-yl)amino)-N-(6-(dimethylamino)pyridazin-3-yl)-6-(methylamino)nicotinamide] | 10 to 50 nM | > 100 nM | 50 to 80% | 50 to 80% |
| CNc1ccc(C(=O)Nc2cccc(C)n2)c(NC2CC3(C2)CN(C(=O)C2(CN4CCN(c5ccc(Nc6ncc7c(C)c(C(C)=O)c(=O)n(C8CCCC8)c7n6)nc5)CC4)CC2)C3)n1 [CPD-171, 2-((2-(1-((4-(6-((6-acetyl-8-cyclopentyl-5-methyl-7-oxo-7,8-dihydropyrido[2,3-d]pyrimidin-2-yl)amino)pyridin-3-yl)piperazin-1-yl)methyl)cyclopropane-1-carbonyl)-2-azaspiro[3.3]heptan-6-yl)amino)-6-(methylamino)-N-(6-methylpyridin-2-yl)nicotinamide] | ≤ 10 nM | < 50 nM | > 80% | > 80% |

More lines, now with the values ahead:

| IC50 (Calu-1 cells) | IC50 (MCF7 cells) | inhibition at 0.04 µM (CDK4) | inhibition at 0.2 µM (CDK4) | Compound |
| --- | --- | --- | --- | --- |
| ≤ 10 nM | 50 to 100 nM | 50 to 80% | 50 to 80% | CC(=O)c1c(C)c2cnc(Nc3ccc(N4CCN(CC(=O)NC5CC6(C5)CC(Nc5nc(NC(C)C)ccc5C(=O)Nc5cc(C)on5)C6)CC4)cn3)nc2n(C2CCCC2)c1=O (centres unmarked) [CPD-199, 2-((6-(2-(4-(6-((6-acetyl-8-cyclopentyl-5-methyl-7-oxo-7,8-dihydropyrido[2,3-d]pyrimidin-2-yl)amino)pyridin-3-yl)piperazin-1-yl)acetamido)spiro[3.3]heptan-2-yl)amino)-6-(isopropylamino)-N-(5-methylisoxazol-3-yl)nicotinamide] |
| ≤ 10 nM | > 100 nM | 50 to 80% | 50 to 80% | [2H]C([2H])([2H])Nc1ccc(C(=O)Nc2cc(C)n(C)n2)c(NC2CC(CNC(=O)CN3CCN(c4ccc(Nc5ncc6c(C)c(C(C)=O)c(=O)n(C7CCCC7)c6n5)nc4)CC3)C2)n1 (centres unmarked) [CPD-206, 2-((3-((2-(4-(6-((6-acetyl-8-cyclopentyl-5-methyl-7-oxo-7,8-dihydropyrido[2,3-d]pyrimidin-2-yl)amino)pyridin-3-yl)piperazin-1-yl)acetamido)methyl)cyclobutyl)amino)-N-(1,5-dimethyl-1H-pyrazol-3-yl)-6-((methyl-d3)amino)nicotinamide] |
| ≤ 10 nM | 50 to 100 nM | 50 to 80% | > 80% | CNc1ccc(C(=O)Nc2ccc(N(C)C)nn2)c(NC2CC(NC(=O)CCN3CCN(c4ccc(Nc5ncc6c(C)c(C(C)=O)c(=O)n(C7CCCC7)c6n5)nc4)CC3)C2)n1 (centres unmarked) [CPD-150, 2-((3-(3-(4-(6-((6-acetyl-8-cyclopentyl-5-methyl-7-oxo-7,8-dihydropyrido[2,3-d]pyrimidin-2-yl)amino)pyridin-3-yl)piperazin-1-yl)propanamido)cyclobutyl)amino)-N-(6-(dimethylamino)pyridazin-3-yl)-6-(methylamino)nicotinamide] |
| ≤ 10 nM | < 50 nM | > 80% | > 80% | CNc1ccc(C(=O)Nc2ccc(N(C)C)nn2)c(NC2CC(CNC(=O)C(C)(C)N3CCN(c4ccc(Nc5ncc6c(C)c(C(C)=O)c(=O)n(C7CCCC7)c6n5)nc4)CC3)C2)n1 (centres unmarked) [CPD-167, 2-((3-((2-(4-(6-((6-acetyl-8-cyclopentyl-5-methyl-7-oxo-7,8-dihydropyrido[2,3-d]pyrimidin-2-yl)amino)pyridin-3-yl)piperazin-1-yl)-2-methylpropanamido)methyl)cyclobutyl)amino)-N-(6-(dimethylamino)pyridazin-3-yl)-6-(methylamino)nicotinamide] |
| ≤ 10 nM | 50 to 100 nM | 50 to 80% | > 80% | CNc1ccc(C(=O)Nc2cccc(C)n2)c(NC2CC(CNC(=O)CN3CCN(c4ccc(Nc5ncc6c(C)c(C(C)=O)c(=O)n(C7CCCC7)c6n5)nc4)CC3)C2)n1 (centres unmarked) [CPD-170, 2-((3-((2-(4-(6-((6-acetyl-8-cyclopentyl-5-methyl-7-oxo-7,8-dihydropyrido[2,3-d]pyrimidin-2-yl)amino)pyridin-3-yl)piperazin-1-yl)acetamido)methyl)cyclobutyl)amino)-6-(methylamino)-N-(6-methylpyridin-2-yl)nicotinamide] |
